For five compounds, IC50, MIC and Activity results are on record in ChEMBL document CHEMBL1151156, “Lakoochins A and B, new antimycobacterial stilbene derivatives from Artocarpus lakoocha” (J Nat Prod, 2004).

The nature of assay [1]: Cytotoxicity against human BC cells by SRB assay. It counts as functional, cell-based.
For assay [2], the system named is Mycobacterium tuberculosis. As to the kind of experiment: Antimycobacterial activity against Mycobacterium tuberculosis H37Ra after 4 days by microplate alamar blue assay. The note with it: 96 h. It counts as functional.
For assay [3], the system named is KB. Description: Cytotoxicity against human KB cells at 20 ug/ml by SRB assay. The assay is classed as functional, cell-based.
Assay [4] relates to KB. As to the kind of experiment: Cytotoxicity against human KB cells by SRB assay. The assay is classed as functional, cell-based.

Structures are written as SMILES. Converted amounts (≈) assume the structure as drawn. The source made the active and inactive calls. The rule behind the calls is not given here.

Turning to `Cc1c2ccncc2c(C)c2c1[nH]c1ccccc12` [ELLIPTECINE], inhibition in assay [1] was half-maximal at 0.2 mg/L (≈ 0.812 µM) (IC50).
Compound `NNC(=O)c1ccncc1` [ISONIAZID] gave an MIC in assay [2] of 0.04 mg/L (≈ 0.292 µM).
The compound `NC[C@H]1O[C@H](O[C@H]2[C@H](O)[C@@H](O[C@H]3O[C@H](CO)[C@@H](O)[C@H](N)[C@H]3O)[C@H](N)C[C@@H]2N)[C@H](O)[C@@H](O)[C@@H]1O.O=S(=O)(O)O` [KANAMYCIN SULFATE] showed an MIC in assay [2] of 2 mg/L.
Regarding `COc1cc(OC)c(CC=C(C)C)c(-c2cc3ccc(O)cc3o2)c1CC=C(C)C` [LAKOOCHIN A], the result in the assay on KB [3] was inactive. This compound displayed an MIC in assay [2] of 12.5 mg/L (≈ 30.7 µM). This compound also returned an IC50 in assay [1] of 6.1 mg/L (≈ 15 µM).
For the compound `CC(C)=CCC/C(C)=C/Cc1c(O)cc(O)c(CC=C(C)C)c1-c1cc2ccc(O)cc2o1` [LAKOOCHIN B], the IC50 was found to be 6.1 mg/L (≈ 13.7 µM) with KB [4] and 3.1 mg/L (≈ 6.94 µM) in assay [1]. For the same compound, the MIC in assay [2] was 50 mg/L (≈ 112 µM).
